Test results as given in US5721265A, “Fluorinated 2-nitroimidazole analogs for detecting hypoxic tumor cells” (priority 1995, dated 1998).
≈ marks a conversion by molar mass, not a printed value. Where “and” joins values, the source holds several entries; their conditions need not be identical. Equal values may be shown once. Entries after “also recorded” stand apart in the source; their conditions may differ. Read-outs that look alike come from different tables or passages of the source. Blank lines part the entries; values can stand above or below the compound they belong to.

Key:
log P (lipophilicity) = format: physicochemical
[1] = reductive metabolism of SR 4554 by mouse liver microsomes under hypoxia (HPLC); format: in vitro ADME
Protocol: (§1) The chromatographic system consisted of a WISP Model 712 autosampler (Waters Chromatography Ltd.), Model 660 gradient controller with a quaternary HPLC pump, a Model 991 photodiode array detector and a NEC Powermate SX/16 personal computer running Waters 991 photodiode array software. A reversed phase chromatographic separation was performed on a 10 μm μ Bondapak C18 (3.9×300 mm) analytical column (Millipore) at ambient temperature. Pellicular ODS (Whatman) packed in a 2×6.5 mm stainless steel column (Upchurch Scientific, Inc.) was used as a pre-column. The mobile phase was methanol/H2 O) (15:85). All solvents were filtered through a 0.45 μm Teflon PTFE/polypropylene filter membrane, de-gassed with helium and delivered isocratically at a flow rate of 2 ml/min. The column effluent was monitored by UV-photodiode array detection at 324 nm (UV range=200 to 500 nm). The peak area ratio of analyte to internal standard was used for conversion of the detector response to concentration estimates via the construction of a calibration curve.
(§2) SR 4554 was reduced by mouse liver microsomes as well as purified rat and human cytochrome P450 reductase under hypoxia (100% nitrogen).
The characteristics of reductive metabolism of SR 4554 by mouse liver microsomes (0.5 mg/ml protein) are depicted in FIG. 1. Samples were removed at various time points, extracted with silver nitrate and analyzed by high performance liquid chromatography (HPLC) as described above. […] The cytochrome P450 inhibitor--carbonmonoxide--inhibited the hypoxic metabolism of SR 4554 by 15%.

[2] = test system: cytochrome P450 reductase; assay: reduction by purified rat cytochrome P450 reductase under hypoxia; format: in vitro ADME; conditions: 100% nitrogen
Description: as §2

[3] = test system: cytochrome P450 reductase; assay: reduction by purified human cytochrome P450 reductase under hypoxia; format: in vitro ADME; conditions: 100% nitrogen
Description: as §2

[4] = pharmacokinetics of SR 4554 in EMT-6 tumor-bearing mice (HPLC); format: in vivo, mouse
Protocol: Silver nitrate solution (25 μl; 30% w/v) was added to 250 μl of tissue samples and standards and to 20 μl of internal standard solution (12.5 μg/ml in 0.1M Tris buffer, pH 7.4). Samples were then vortexed and centrifuged (2000×g) for 5 min. The extracted samples 50 μl) were then injected into the HPLC.
as §1
EMT-6 tumor-bearing mice were used in this study. Mice were given a single intraperitoneal or intravenous injection (180 mg/kg body weight) or a single oral dose (p.o. 90 mg/kg) by lavage of SR 4554. Three mice were sacrificed per time point and blood obtained by cardiac puncture. The blood obtained was centrifuged to give plasma. Tumors, livers and brain were also obtained at various time points. Samples were extracted with silver nitrate and analyzed by high performance liquid chromatography (HPLC) using the procedures described in Example 4.

[5] = urinary excretion of SR 4554 in non-tumor-bearing female Balb/c mice; format: in vivo, mouse; conditions: urine
[6] = toxicity of SR 4554 in female Balb/c mice; format: in vivo, mouse
Protocol: Toxicity studies of SR 4554 were done in female Balb/c mice. Mice were injected with SR 4554 i.v with 191 mg/kg ([…]) body weight or i.p. with 383 mg/kg ([…]) body weight. Control mice were injected with an equivalent volume of solvent (saline).

RIF-1 tumors = assay: retention in RIF-1 tumor-bearing C3H/He mice by 19F magnetic resonance spectroscopy (and HPLC); format: in vivo, mouse
Protocol: (§3) SR 4554 was administered as a single intraperitoneal injection of 180 mg/kg to RIF-1 tumor-bearing female C3 H/He mice and EMT-6 tumor-bearing female Balb/c mice. In some experiments, hydralazine ([…] i.v.) was administered 1 h prior to the administration of SR 4554. Magnetic resonance spectroscopy (MRS) was conducted on a 4.7 Tesla (SISCO) nuclear magnetic resonance (NMR) spectrometer using a double-tuned (^19 F/^2 H) circuit at 45 min and 6 hr post injection of SR 4554. Drug concentrations were obtained using a modification of the method of Thulborn et al. (1983) J. Magn. Reson. 55:357-371. Specifically, the ^19 F signal intensity was related to the natural abundance ^2 H signal from tissue water. Calibrations involved the use of a reference bulb containing 5-fluorotryptophan (5-FTP) and acetic acid-d (AcOH-d). Tumors were excised immediately after MRS examination and original drug levels determined by high performance liquid chromatography (HPLC), as described in Example 6.
It is assumed that the retention of high concentrations of ^19 F at 6 hr, despite the much lower (20 fold) concentration of original drug detected by HPLC at […], represent one or more nitro-reduced metabolites.
The retention of drug signal in RIF-1 tumors is plotted as a function of tumor weight in FIG. 7. Tumor ^19 F signal levels at 6 hrs and 45 min were calculated in μmol/g tumor. The retention of ^19 F at 6 hrs relative to 45 min in the same tumors was compared to corresponding tumor weights in grams. In this tumor model (a low hypoxic fraction tumor) the relative retention (6 hrs/45 min) correlated with tumor weight (corr. coeff.=0.83).

EMT-6 tumors = assay: retention in EMT-6 tumor-bearing Balb/c mice by 19F magnetic resonance spectroscopy; format: in vivo, mouse
Protocol: as §3
RIF-1 and EMT-6 tumors have a low and a high radiobiological hypoxic fraction, respectively. Moulder et al. (1984), supra.

[7] = test system: murine and human tumor xenografts; assay: retention of 19F signal in murine and human tumor xenografts by MRS; format: in vivo, mouse; human
Protocol: In addition to the above experiment, more extensive in vivo experiments have been performed. In order to assess the oxygenation status of various murine and human tumor xenografts, the retention of ^19 F signal as measured by MRS was evaluated following SR 4554 administration. The data shown in FIG. 8 represent the mean ±SD of the ratios of ^19 F retention (μmol/g) at 6 hrs relative to 45 mins. RIF1 (fibrosarcoma), EMT6 ([…]) and KHT (adenocarcinoma) are murine tumors whereas HT29 (colon carcinoma), BB (colon carcinoma), WIL (non-small cell lung carcinoma) and HN5 (squamous cell carcinoma of the head and neck) are human tumor xenografts. Importantly, the data illustrates the varying degree of retention of SR 4554 by the different tumors.

C3H mouse mammary tumor = assay: influence of carbogen breathing on SR 4554 retention within the C3H mouse mammary tumor; format: in vivo
Description: Table 4 presents the influence of high levels of oxygen (carbogen breathing) on SR 4554 retention within the C3H mouse mammary tumor.

C3H-mammary tumor = assay: SR 4554 retention and oxygen electrode measurement in C3H-mammary tumor; format: in vivo, mouse
Protocol: (§4) Tumor oxygenation measurements were performed 3 hours after SR 4554 administration using a polarographic needle oxygen electrode.

SCCVII tumor = assay: SR 4554 retention and oxygen electrode measurement in SCCVII tumor; format: in vivo
Protocol: as §4

[8] = solubility in 0.9% saline solution
[9] = test system: mouse tumors (EMT-6, KHT, RIF-1); conditions: cited from earlier work; for 19F signal intensity by tumor type: EMT-6, KHT vs RIF-1; for retention in mouse tumors (19F MRS): in vivo
tumors = conditions: cited from earlier work
[10] = cited from earlier work
[11] = in vivo; cited from earlier work
[12] = literature compounds; cited from earlier work
[13] = per amount injected 3.34-3.55 mg

Compound: O=C(Cn1ccnc1[N+](=O)[O-])NCC(O)C(F)(F)F (racemic) [SR 4554]
logP (log P (lipophilicity)): -0.2
inhibition of reduction by cytochrome P450 reductase inhibitor ([1]; TlCl3.4H2O, 0.2 mg/ml): completely inhibited
inhibition of reduction by air ([1]; in air): completely inhibited
Vmax of microsomal metabolism ([1]; mouse liver microsomes): 16.84 nmol/min/mg
other nitro-containing species upon metabolism ([1]; mouse liver microsomes 0.5 mg/ml protein): No other nitro-containing species were observed
reduced under hypoxia ([1]; mouse liver microsomes, 100% nitrogen): reduced; also recorded: metabolized under hypoxic conditions
Km ([1]; mouse liver microsomes, read-out: Km of microsomal metabolism): 0.65 mM
inhibition of reduction in the absence of cofactor (NADPH) ([1]; without NADPH): completely inhibited
reduced under hypoxia [2]: reduced
reduced under hypoxia [3]: reduced
brain/plasma ratio over time ([4]; i.p.): generally remained low throughout the observation period
liver/plasma ratio over time ([4]; i.p.): decreased very rapidly
time of peak tumor/plasma ratio ([4]; i.p.): about 90 min
liver/plasma and brain/plasma ratios at 240 min ([4]; i.p., 240 min): about the same
bioavailability ratio relative to i.v., i.v. ([4]; i.v. 180 mg/kg): 100%
detectable in plasma until ([4]; limit of detection=25 ng/ml, postinjection): ≥ 6 h
brain levels and brain/plasma ratio ([4]; mice): generally low
accumulation in the brain ([4]; mouse, in vivo): does not accumulate to any appreciable degree in the brain
bioavailability ([4]; mouse, in vivo, ip, i.p. 180 mg/kg, read-out: bioavailability ratio relative to i.v., i.p.): 100%
bioavailability ([4]; mouse, in vivo, po, p.o. 90 mg/kg, read-out: bioavailability ratio relative to i.v., p.o.): 95.5%
Cmax ([4]; mouse, plasma, read-out: Cmax, plasma): 145 µg/mL
half-life ([4]; mouse, plasma, read-out: half life, t1/2, plasma): 50.8 ± 1.6 min
Tmax ([4]; mouse, plasma, read-out: tmax, plasma (converted)): 30 min
concentration at 6 h ([4]; mouse, tissue, limit of detection, 6 hours, read-out: tissue levels of drug at 6 hours): < 100 ng/g
Cmax ([4]; mouse, tumor, read-out: Cmax, tumor): 52000 ng/g
half-life ([4]; mouse, tumor, read-out: half life, t1/2, tumor): 51.5 ± 4.4 min
Tmax ([4]; mouse, tumor, read-out: tmax, tumor (converted)): 45 min
dose excreted ([5]; mouse, read-out: detected as unchanged parent compound in urine): ≤ 66%
Amount of Drug Excreted [5, 13]: 2.62 mg and 2.39 mg and 1.83 mg
Fraction of Dose Excreted [5, 13]: 73.80% and 71.56% and 52.59%
behavioral changes or deaths ([6]; i.v. 191 mg/kg or i.p. 383 mg/kg): no behavioral changes or deaths were observed
bodyweight changes between treated and control mice ([6]; mouse, in vivo): No differences were observed
Retention (mean ± S.D.), + hydralazine (RIF-1 tumors; RIF-1 + hydralazine 1 h prior, n = 6): 1.27 ± 0.50
Retention (mean ± S.D.) (RIF-1 tumors; RIF-1, 180 mg/kg i.p., n = 13, tumor weight 0.5 to 2.7 g): 0.53 ± 0.27
clearance from the brain and retention in tumors (RIF-1 tumors; RIF-1 mice): rapidly cleared from the brain but selectively retained in tumors
tumor drug level, 7 hrs (HPLC) (RIF-1 tumors; RIF-1 tumor, original drug, 7 hrs, HPLC): 0.009 μmol/g tissue and 0.008 μmol/g tissue and 0.007 μmol/g tissue
concentration of original drug (HPLC, 7 hrs) lower than 19F (MRS, 6 hr) (RIF-1 tumors; RIF-1 tumors): 20 fold
increase in retention on hydralazine pre-treatment (RIF-1 tumors; hydralazine 1 h prior): two-fold increase
Retention (mean ± S.D.) (EMT-6 tumors; EMT-6, 180 mg/kg i.p., n = 12): 1.04 ± 0.66
retention in EMT-6 compared with RIF-1 tumors (EMT-6 tumors; MRS): greater in EMT-6 tumors than in RIF-1 tumors
retention in human tumor xenografts vs murine tumors (6 hrs relative to 45 mins) ([7]; HT29, BB, WIL, HN5 vs RIF1, EMT6, KHT): Apart from the WIL tumor, the retention of the drug in human tumor xenografts were lower than for the murine tumors
trend of retention with hypoxic fraction ([7]; murine and human tumors): tumors which are known to have a greater hypoxic fraction retained more SR 4554
Retention, air breathing (C3H mouse mammary tumor; Air (20% O2)): 0.62 +/- 0.17
Retention, carbogen breathing (C3H mouse mammary tumor; Carbogen (95% O2)): 0.11 +/- 0.05
reduction in retention, carbogen vs air (C3H mouse mammary tumor; carbogen vs air): significant (P<0.01) reduction
SR 4554 Retention (mean ± SD) (C3H-mammary tumor): 0.79 +/- 0.36
SR 4554 Retention (mean ± SD) (SCCVII tumor): 0.57 +/- 0.14
solubility [8]: 23 mM (≈ 6.49 mg/mL)

Compound: O=[N+]([O-])c1nccn1CC(O)COC(C(F)(F)F)C(F)(F)F (stereo not shown) [CCI-103F, hexafluoromisonidazole]
19F signal intensity by tumor type [9]: higher in EMT-6 and KHT than RIF-1 tumors
retention in mouse tumors (19F MRS) [9]: selectively retained in mouse tumors
staining for bound drug in tumors (tumors; immunohistochemistry): some staining for bound drug at the periphery of necrotic zones
19F tumor signal detectable after twenty-four hours (tumors; intraperitoneal, 24 hours): 4 of 10
octanol/water partition coefficient [10]: 20
neurotoxic side effects [11]: neurotoxic side effects

Compound: O=C(Cn1ccnc1[N+](=O)[O-])NCCO [Etanidazole]
log P [12]: -1.28
neurotoxicity relative to Misonidazole [11]: less neurotoxic than Misonidazole
solubility [8]: 551 mM (≈ 118 mg/mL)

Compound: COCC(O)Cn1ccnc1[N+](=O)[O-] (stereo not shown) [Misonidazole]
log P [12]: -0.32

Compound: O=[N+]([O-])c1nccn1CC(O)CF (stereo not shown) [Ro 07-0741]
19F signal intensity by tumor type [9]: higher in EMT-6 and KHT than RIF-1 tumors
retention in mouse tumors (19F MRS) [9]: selectively retained in mouse tumors
octanol/water partition coefficient [10]: 0.41
neurotoxic side effects [11]: neurotoxic side effects

logP (log P (lipophilicity)): -0.36
solubility [8]: 628 mM (≈ 205 mg/mL)
Compound: O=C(Cn1ccnc1[N+](=O)[O-])N(CCO)CC(O)C(F)(F)F (stereo not shown) [SR 4557, N-(2-hydroxyethyl)-N-(2-hydroxy-3,3,3-trifluoropropyl)-2-(2-nitro 1H-imidazol-1-yl)acetamide]
